The values that follow come from patent US9145376B2, “Quinazolinone inhibitors of dynein” (The Rockefeller University, priority 2011, dated 2015).

Test [1] deals with Hh pathway (Gli-responsive firefly luciferase reporter in Shh-LIGHT2 cells). Description: Shh-LIGHT2 assay for Hh pathway activity. Type of test: cell-based. As to conditions: 10% Shh-conditioned medium, 24 hours, firefly/Renilla luciferase ratio. As to the method: Shh-N-conditioned medium was prepared as described by Chen et al., Proc. Natl. Acad. Sci. U.S.A. 99, 14071 (2002). Shh-LIGHT2 cells [J. Taipale et al., Nature 406, 1005 (2000)], an NIH-3T3-based cell line containing a stably integrated Gli-responsive firefly luciferase reporter and a constitutive thymidine kinase promoter-driven Renilla luciferase expression construct (pRLTK, Promega), were cultured in DMEM containing 10% calf serum. 100 U/mL penicillin, and 0.1 mg/mL streptomycin. The cells were seeded into 96-well plates at a density of 30,000 cells/well, and the following day they were treated with individual compounds or DMSO in DMEM containing 0.5% calf serum, 10% Shh-conditioned medium, and the antibiotics described above. After being cultured for another 24 hours, the cells were lysed and their firefly and Renilla luciferase activities were determined using, a dual luciferase reporter kit (Promega) and a microplate luminometer (Veritas). Average values representing the firefly luciferase/Renilla luciferase ratio from triplicate samples were used to construct dose response profiles for each compound. Dose-response data from three separate experiments were independently curve-fitted with a variable slope, sigmoidal dose-response algorithm using Prism software, and the resulting IC50 values were used to generate an average IC50 for each compound.

In test [2] the test system is primary cilia of Shh-EGFP cells. Description: Quantitative assessment of ciliogenesis (Arl13b staining, cilia size). It counts as cell-based. As to conditions: 24 hours, read-out: Primary cilia size (percent of DMSO control at a 30 μM dose). As to the method:
Shh-EGFP cells [J. Hyman et al., Proc. Natl. Acad. Sci. U.S.A., (2009)], an NIH-3T3-based cell line containing a stably integrated Gli-responsive enhanced green fluorescent protein reporter, were maintained in DMEM containing 10% calf serum, 100 U/mL penicillin, and 0.1 mg/mL streptomycin. The cells were seeded into 24-well plates containing poly-D-lysine-coated 12-mm glass coverslips at a density of 30,000 cells/well and cultured for 36 hours. The cells were transferred into DMEM containing 0.5% calf serum, the antibiotics described above, and either individual compounds at a 30 μM concentration or 0.3% DMSO. After being cultured for another 24 hours, the cells were fixed in PBS containing 4% paraformaldehyde for 10 minutes at room temperature, washed 3×5 minutes with PBS, permeabilized with PBS containing 0.3% Triton X-100 for 5 minutes, and blocked overnight at 4° C. with PBS containing 5% normal goat serum, 0.1% Triton X-100, and 0.05% sodium azide. The coverslips were then incubated for 90 minutes at room temperature with blocking buffer containing rabbit polyclonal anti-Arl 13b antibody (1:3000 dilution), washed 4×5 minutes with PBS containing 0.1% Triton X-100, and incubated for 60 minutes with blocking buffer containing Alexa Fluor 488-conjugated goat polyclonal anti-rabbit IgG antibody (1:300 dilution; Invitrogen, A-11034). Following this secondary antibody incubation, nuclei were stained by incubating the cells 2×10 minutes with PBS containing 0.1% Triton X-100 and […] 4′,6-diamidino-2-phenylindole (DAPI) and washing them 2×5 minutes with PBS. The coverslips were subsequently mounted onto slides using Prolong Gold Antifade Reagent (Invitrogen) and imaged using an HC Plan Apochromat CS 20×/0.70 NA oil immersion objective on a Leica DMI6000B compound microscope equipped with a Photometric CoolSNAP HQ CCD camera and Metamorph software (Molecular Devices). Images of Arl13b staining in DMSO-treated cells were manually examined to establish a minimum threshold value for cilia staining intensity. ImageJ software was then used to define objects consisting of two or more adjacent pixels with a signal intensity equal to or greater than this threshold value, and the total object area within an individual image was used to estimate the total pixel area of primary cilia. Corresponding images of DAPI staining were processed in parallel using CellProfiler software to establish the number of nuclei per image. The average cilia size per cell within an individual image was then determined by dividing the total ciliary pixel area by the number of nuclei. Ten individual images, each containing approximately 150 cells. were used to quantify the average cilia size for each experimental condition.
Shh-EGFP cells, an NIH-3T3-based cell line containing a stably integrated Gli-responsive enhanced green fluorescent protein reporter, were maintained in DMEM containing 10% (v/v) calf serum, 100 U/mL penicillin, and 0.1 mg/mL streptomycin. The cells were seeded into 24-well plates containing poly-D-lysine-coated 12-mm glass coverslips at a density of 30,000 cells/well and cultured for 36 hours. The cells were transferred into DMEM containing 0.5% (v/v) calf serum, the antibiotics described above, and either individual dihydroquinazolinones at a 30 μM concentration or an equivalent amount of DMSO vehicle (0.3%, v/v). After being cultured for another 24 hours, the cells were fixed in PBS containing 4% (w/v) paraformaldehyde for 10 min at room temperature, washed 3×5 min with PBS, permeabilized with PBS containing 0.3% (v/v) Triton X-100 for 5 min, and blocked overnight at 4° C. with PBS containing 5% (v/v) normal goat serum, 0.1% (v/v) Triton X-100, and 0.05% (w/v) sodium azide. […]

Test [3] has as its system Gli3 processing in Shh-EGFP cells. Description: Quantitative assessment of Hh ligand-dependent Gli3 processing. It counts as cell-based. As to conditions: Shh-EGFP cells stimulated with Shh-N, 16 hours. As to the method:
Shh-EGFP cells were seeded into 12-well plate at a density of 120,000 cells/well in DMEM containing 10% calf serum. 100 U/mL penicillin, and 0.1 mg/mL streptomycin. After being cultured for 24 hours, the cells were transferred into DMEM containing 0.5% calf serum, 10% Shh-conditioned medium, the antibiotics described above, and either individual compounds or DMSO. The cells were cultured for an additional 16 hours, washed with PBS, and then lysed by incubation on ice with SDS-PAGE loading buffer composed of 8% glycerol, 20 mM Tris-HCl, pH 6.8, 2% SDS, 100 mM DTT, 1 mM PMSF, 20 mM NaF, 2 mM Na3VO4, and an EDTA-free protease inhibitor cocktail (Roche). The lysed samples were heated to 100° C. for 7 minutes, loaded onto 3-8% Criterion XT Tris-Acetate polyacrylamide gels (Bio-Rad), electrophoresed in XT Tricine buffer (Bio-Rad), and transferred onto PVDF membranes. The membranes were dehydrated with methanol and probed overnight at 4° C. with goat polyclonal anti-Gli3 antibody (0.4 μg/mL: R & D Systems, AF3690) in PBS containing 4% non-fat dry milk and 0.1% Tween-20 (immunoblot blocking buffer). The blots were then washed 4×1 minutes in PBS and incubated with horseradish peroxidase-conjugated bovine polyclonal anti-goat IgG antibody (0.04 μg/mL, Jackson ImmunoResearch, 805-035-180) in immunoblot blocking buffer for 1 hour at room temperature. The membranes were next washed 4×1 minutes in PBS and visualized using SuperSignal West Dura Extended Duration substrate (Thermo Scientific) and a ChemiDoc XRS imaging system (Bio-Rad). Band intensities of Gli3FL and Gli3R where quantified using Quantity One software (Bio-Rad), and five independent experiments were used to determine the average Gli3FL/Gli3R ratio for each compound.

In test [4] the test system is basal cell carcinoma. Particulars: 33 human patients; cited from earlier work.
Test [5] has as its system medulloblastoma. Particulars: human patient; cited from earlier work.

For orientation: IC50 means the point on the concentration scale where inhibition reaches its midpoint.

In the case of `N#C/C(C(=O)c1ccc(Br)cc1)=C1\NC(=O)c2ccccc2N1` [Example 3], the 50% inhibitory concentration (IC50) in test [1] is 5 µM.

Consider `N#C/C(C(=O)c1ccc(I)cc1)=C1\NC(=O)c2ccccc2N1` [Example 4], for which the IC50 in test [1] amounted to 4.5 µM.

`Cc1ccc(C(=O)/C(C#N)=C2/NC(=O)c3ccccc3N2)cc1` [Example 5]: the IC50 in test [1] is 15 µM.

Consider `CC(C)Cc1ccc(C(=O)/C(C#N)=C2/NC(=O)c3ccccc3N2)cc1` [Example 6], for which the IC50 in test [1] stood at 6.5 µM.

Consider `COc1ccc(C(=O)/C(C#N)=C2/NC(=O)c3ccccc3N2)cc1` [Example 8], for which the IC50 in test [1] turned out to be 30 µM.

Regarding `N#C/C(C(=O)c1ccc([N+](=O)[O-])cc1)=C1\NC(=O)c2ccccc2N1` [Example 9], in test [1], the half-maximal inhibitory concentration (IC50) was 25 µM.

For `N#C/C(C(=O)c1ccccc1Cl)=C1\NC(=O)c2ccccc2N1` [Example 10, 3-(2-chlorophenyl)-3-oxo-2-(4-oxo-3,4-dihydroquinazolin-2(1H)-ylidene)propanenitrile], in test [2], the activity at 30 µM came to 93%. Further, in test [1], the IC50 was 25 µM.

Regarding `N#C/C(C(=O)c1ccccc1F)=C1\NC(=O)c2ccccc2N1` [Example 11], the IC50 in test [1] was 30 µM.

As for `N#C/C(C(=O)c1ccccc1Br)=C1\NC(=O)c2ccccc2N1` [Example 12], the IC50 in test [1] turned out to be 15 µM.

`N#C/C(C(=O)c1ccccc1I)=C1\NC(=O)c2ccccc2N1` [Example 13]: the IC50 in test [1] came to 20 µM.

Regarding `Cc1ccccc1C(=O)/C(C#N)=C1/NC(=O)c2ccccc2N1` [Example 14], in test [1], the IC50 came out at 30 µM.

As for `COc1ccccc1C(=O)/C(C#N)=C1/NC(=O)c2ccccc2N1` [Example 15], in test [1], the IC50 was > 30 µM.

For the molecule `N#C/C(C(=O)c1cccc(Cl)c1)=C1\NC(=O)c2ccccc2N1` [Example 17, 3-(3-chlorophenyl)-3-oxo-2-(4-oxo-3,4-dihydroquinazolin-2 (1H)-ylidene)propanenitrile], the activity at 30 µM in test [2] came out at 68%. Also, the IC50 in test [1] was 5.5 µM.

With `N#C/C(C(=O)c1ccc(Cl)c(Cl)c1)=C1\NC(=O)c2ccccc2N1` [Example 18], the activity at 30 µM in test [2] stood at 16%. Moreover, in test [1], the IC50 turned out to be 3 µM.

For the molecule `N#C/C(C(=O)c1cc(Cl)cc(Cl)c1)=C1\NC(=O)c2ccccc2N1` [Example 19], in test [2], the activity at 30 µM worked out at 65%. The IC50 in test [1] came to 3 µM.

Consider `COc1cc(C(=O)/C(C#N)=C2/NC(=O)c3ccccc3N2)cc(OC)c1OC` [Example 20], for which the IC50 in test [1] was > 30 µM.

On to `N#C/C(C(=O)c1cccc2ccccc12)=C1\NC(=O)c2ccccc2N1` [Example 21], for which the IC50 in test [1] is 20 µM.

Regarding `Cc1cccc(C(=O)/C(C#N)=C2/NC(=O)c3ccccc3N2)c1` [Example 22], the half-maximal inhibitory concentration (IC50) in test [1] was determined as 5 µM.

For the molecule `O=C(/C=C1/NC(=O)c2ccccc2N1)c1ccc(Cl)cc1Cl` [Example 23], the activity at 30 µM in test [2] is 70%. Moreover, the IC50 in test [1] worked out at 4.4 µM.

Turning to `N#C/C(=C\c1ccc(Cl)cc1Cl)C1NC(=O)c2ccccc2N1` (stereo not drawn) [Example 24], the activity at 30 µM in test [2] amounted to 104%. Further, the IC50 in test [1] is > 50 µM.

As for `N#C/C(C(=O)c1ccc(Cl)cc1Cl)=C1\NC(=O)c2c(Cl)cccc2N1` [Example 25, 2-(5-chloro-4-oxo-3,4-dihydroquinazolin-2(1H)-ylidene)-3-(2,4-dichlorophenyl)-3-oxo-propanenitrile], in test [3], the Gli3FL/Gli3R ratio entry is on record as “altered the Gli3FL/Gli3R ratio” and the “Shh-N-dependent Gli3FL phosphorylation” value is listed as “reduced”. Moreover, in test [2], the activity at 30 µM is 32%. The IC50 in test [1] amounted to 11 µM.

Turning to `Cc1cccc2c1C(=O)N/C(=C(\C#N)C(=O)c1ccc(Cl)cc1Cl)N2` [Example 26], the IC50 in test [1] was 10 µM.

Turning to `N#C/C(C(=O)c1ccc(Cl)cc1Cl)=C1\NC(=O)c2cc(Cl)ccc2N1` [Example 27, 2-(6-chloro-4-oxo-3,4-dihydroquinazolin-2(1H)-ylidene)-3-(2,4-dichlorophenyl)-3-oxopropanenitrile], in test [3], the Gli3FL/Gli3R ratio result is reported as “altered the Gli3FL/Gli3R ratio” and the “Shh-N-dependent Gli3FL phosphorylation” value is given as “reduced”. Moreover, the activity at 30 µM in test [2] came out at 11%. For the same molecule, in test [1], the IC50 stood at 6.1 µM.

For `N#C/C(C(=O)c1ccc(Cl)cc1Cl)=C1\NC(=O)c2cc(I)ccc2N1` [Example 28], the IC50 in test [1] was found to be 6 µM.

As to `N#C/C(C(=O)c1ccc(Cl)cc1Cl)=C1\NC(=O)c2cc(C#CCN)ccc2N1` [Example 29], the IC50 in test [1] is 20 µM.

For `CC(=O)NCC#Cc1ccc2c(c1)C(=O)N/C(=C(\C#N)C(=O)c1ccc(Cl)cc1Cl)N2` [Example 30], the IC50 in test [1] was 30 µM.

Regarding `N#C/C(C(=O)c1ccc(Cl)cc1Cl)=C1\NC(=O)c2ccc(I)cc2N1` [Example 32], the IC50 in test [1] turned out to be 12 µM.

Consider `COc1ccc2c(c1)N/C(=C(/C#N)C(=O)c1ccc(Cl)cc1Cl)NC2=O` [Example 33], for which the IC50 in test [1] was 15 µM.

Turning to `CS(=O)(=O)c1ccc(C(=O)Nc2ccc(Cl)c(-c3ccccn3)c2)c(Cl)c1` [GDC-0449], in test [4], the “tumor response, basal cell carcinoma” value is listed as “clinically significant response”. Moreover, in test [5], the “tumor response, medulloblastoma” value is listed as “regression of medulloblastoma”.
